In patent publication US12351580B2, “NLRP3 modulators” (Innate Tumor Immunity, Inc., priority 2017, dated 2025):

Assays:
TLR7 = target: T1, TLR7 (Homo sapiens, UniProt Q9NYK1); assay: In vitro human TLR7 binding reporter assay (HEK-Blue, NF-kB/AP1-inducible SEAP); assay type: cell-based; conditions: activity range symbols
T1 construct: host or cells: HEK-Blue cells (human HEK) co-expressing TLR7 and an NF-kB/AP1-inducible SEAP reporter
T1 sequence (Q9NYK1 27-1049): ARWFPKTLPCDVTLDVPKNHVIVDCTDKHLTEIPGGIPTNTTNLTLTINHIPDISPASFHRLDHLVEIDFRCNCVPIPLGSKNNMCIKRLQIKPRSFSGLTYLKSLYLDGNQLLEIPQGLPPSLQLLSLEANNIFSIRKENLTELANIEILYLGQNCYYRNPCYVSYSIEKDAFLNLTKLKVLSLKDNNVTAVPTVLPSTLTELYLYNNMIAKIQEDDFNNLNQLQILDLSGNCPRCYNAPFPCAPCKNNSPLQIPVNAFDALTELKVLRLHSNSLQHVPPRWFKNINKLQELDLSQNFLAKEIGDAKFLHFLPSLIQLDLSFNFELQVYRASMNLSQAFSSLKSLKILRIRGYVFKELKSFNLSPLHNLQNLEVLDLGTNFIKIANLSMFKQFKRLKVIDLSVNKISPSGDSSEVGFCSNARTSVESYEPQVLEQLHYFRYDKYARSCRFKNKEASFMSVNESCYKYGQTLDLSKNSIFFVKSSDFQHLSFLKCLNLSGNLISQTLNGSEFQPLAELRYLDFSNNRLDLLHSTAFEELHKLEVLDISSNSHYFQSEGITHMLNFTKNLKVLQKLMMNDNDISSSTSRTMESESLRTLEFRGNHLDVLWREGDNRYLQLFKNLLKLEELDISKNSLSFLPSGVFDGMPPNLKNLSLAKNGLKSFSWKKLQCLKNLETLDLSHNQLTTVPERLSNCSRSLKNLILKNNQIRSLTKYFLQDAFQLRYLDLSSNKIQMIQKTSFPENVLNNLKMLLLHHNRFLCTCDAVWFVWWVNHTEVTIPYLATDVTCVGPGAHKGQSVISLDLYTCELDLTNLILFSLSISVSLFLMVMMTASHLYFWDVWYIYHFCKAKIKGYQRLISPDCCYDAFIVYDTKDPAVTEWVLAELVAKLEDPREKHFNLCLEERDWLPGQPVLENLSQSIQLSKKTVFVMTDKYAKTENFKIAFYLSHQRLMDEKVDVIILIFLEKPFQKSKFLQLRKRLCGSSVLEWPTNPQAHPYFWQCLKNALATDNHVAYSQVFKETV
Procedure: (§1) In Vitro Human TLR7 and TLR8 Binding Reporter Assays
(§2) Logarithmically-growing human HEK-Blue cells co-expressing a TLR7 or TLR8 gene and a NF-kB/AP1-inducible SEAP (secreted embryonic alkaline phosphatase; Invivogen, San Diego, CA) reporter gene are added to individual wells of a 384-well plate (15,000 cells per 20 μL per well) and maintained for 24 h at 37° C., 5% CO2. Test compounds or DMSO are distributed to separate wells the next day using acoustic liquid handling technology (100 nL per well) and cells are subsequently incubated for 18 h at 37° C., 5% CO2. Cellular SEAP production is measured using an Envision plate reader instrument thirty minutes after adding freshly-made Quanti-Blue reagent (prepared by following manufacturer instructions; Invivogen, San Diego, CA) to the HEK-Blue TLR Nf-kB-SEAP cell reactions. All EC50 values (half-maximal effective concentration) are determined using proprietary data analysis software.

TLR8 = target: T2, TLR8 (Homo sapiens, UniProt Q9NR97); assay: In vitro human TLR8 binding reporter assay (HEK-Blue, NF-kB/AP1-inducible SEAP); assay type: cell-based; conditions: activity range symbols
T2 construct: host or cells: HEK-Blue cells (human HEK) co-expressing TLR8 and an NF-kB/AP1-inducible SEAP reporter
T2 sequence (Q9NR97 27-1041): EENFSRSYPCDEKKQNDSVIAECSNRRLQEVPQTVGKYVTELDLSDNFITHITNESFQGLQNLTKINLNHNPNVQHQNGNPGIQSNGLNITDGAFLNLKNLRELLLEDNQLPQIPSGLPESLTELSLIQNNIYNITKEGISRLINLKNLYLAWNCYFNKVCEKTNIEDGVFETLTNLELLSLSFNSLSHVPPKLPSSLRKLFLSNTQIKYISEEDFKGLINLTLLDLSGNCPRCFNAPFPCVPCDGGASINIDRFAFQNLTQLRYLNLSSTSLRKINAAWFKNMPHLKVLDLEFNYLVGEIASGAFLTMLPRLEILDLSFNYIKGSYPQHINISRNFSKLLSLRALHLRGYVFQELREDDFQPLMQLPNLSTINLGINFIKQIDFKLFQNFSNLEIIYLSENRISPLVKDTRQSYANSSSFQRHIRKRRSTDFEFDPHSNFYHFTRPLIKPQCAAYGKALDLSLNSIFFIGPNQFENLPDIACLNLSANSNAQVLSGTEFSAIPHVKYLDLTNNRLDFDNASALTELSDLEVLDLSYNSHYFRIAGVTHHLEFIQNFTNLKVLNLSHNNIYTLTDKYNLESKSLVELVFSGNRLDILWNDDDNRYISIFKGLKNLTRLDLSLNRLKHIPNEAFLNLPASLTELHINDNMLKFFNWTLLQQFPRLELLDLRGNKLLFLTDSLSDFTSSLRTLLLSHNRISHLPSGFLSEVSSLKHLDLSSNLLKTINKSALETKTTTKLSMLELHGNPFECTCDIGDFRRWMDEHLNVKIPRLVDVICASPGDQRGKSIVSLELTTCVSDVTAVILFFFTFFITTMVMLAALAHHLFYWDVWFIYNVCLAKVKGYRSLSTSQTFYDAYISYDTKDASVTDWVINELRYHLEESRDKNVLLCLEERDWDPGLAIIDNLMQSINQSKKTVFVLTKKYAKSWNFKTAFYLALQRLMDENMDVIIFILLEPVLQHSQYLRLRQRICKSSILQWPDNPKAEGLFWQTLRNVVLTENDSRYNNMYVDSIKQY
Procedure: as §1, §2

| Structure (SMILES) | EC50 (TLR7) [µM] | EC50 (TLR8) [µM] |
| --- | --- | --- |
| Nc1nc2cc(-n3cccn3)ccc2c2[nH]c(CN3CC(c4ccccc4)CC3=O)nc12 (stereo not drawn) [Compound 103] | > 100 | > 100 |
| CCN(Cc1nc2c(N)nc3cc(C)ccc3c2[nH]1)C(C)=O [Compound 104] | > 100 | > 100 |
| CCNCc1nc2c(N)nc3cc(-c4cc[nH]n4)ccc3c2n1C [Compound 106, 2-((Ethylamino)methyl)-1-methyl-7-(1H-pyrazol-3-yl)-1H-imidazo[4,5-c]quinolin-4-amine] | > 100 | > 100 |
| CCN(Cc1nc2c(N)nc3cc(-n4cccn4)ccc3c2[nH]1)S(C)(=O)=O [Compound 108, N-((4-Amino-7-(1H-pyrazol-1-yl)-1H-imidazo[4,5-c]quinolin-2-yl)methyl)-N-ethylmethanesulfonamide] | > 100 | > 100 |
| CCN(Cc1nc2c(N)nc3cc(-c4cc[nH]n4)ccc3c2[nH]1)C(=O)OC(C)(C)C [Compound 109, tert-Butyl ((4-amino-7-(1H-pyrazol-3-yl)-1H-imidazo[4,5-c]quinolin-2-yl)methyl)(ethyl)carbamate] | > 100 | > 100 |
| CCN(Cc1nc2c(N)nc3cc(-c4cc[nH]n4)ccc3c2[nH]1)C(=O)N(C)C [Compound 110, 1-((4-Amino-7-(1H-pyrazol-3-yl)-1H-imidazo[4,5-c]quinolin-2-yl)methyl)-1-ethyl-3,3-dimethylurea] | > 100 | > 100 |
| Nc1nc2cc(C(F)(F)F)ccc2c2[nH]c(CN3CCCC3=O)nc12 [Compound 163] | 20 to 100 | > 100 |
| CCN(Cc1nc2c(N)nc3ccccc3c2n1CCCC(=O)OC)C(C)=O [Compound 164] | > 100 | > 100 |
| CCN(Cc1nc2c(N)nc3cc(-c4ccccc4)ccc3c2[nH]1)C(C)=O [Compound 165, N-[(4-amino-7-phenyl-1H-imidazo[4,5-c]quinolin-2-yl)methyl]-N-ethylacetamide] | > 100 | > 100 |
| CCN(Cc1nc2c(N)nc3cc(-c4cccnc4)ccc3c2[nH]1)C(C)=O [Compound 166, N-[(4-amino-7-pyridin-3-yl-1H-imidazo[4,5-c]quinolin-2-yl)methyl]-N-ethylacetamide] | > 100 | > 100 |
| CCN(Cc1nc2c(N)nc3cc(-c4ccncc4)ccc3c2[nH]1)C(C)=O [Compound 167, N-[(4-amino-7-pyridin-4-yl-1H-imidazo[4,5-c]quinolin-2-yl)methyl]-N-ethylacetamide] | > 100 | > 100 |
| CCN(Cc1nc2c(N)nc3cc(-c4cc(C)nn4C)ccc3c2[nH]1)C(C)=O [Compound 168, N-[[4-amino-7-(2,5-dimethylpyrazol-3-yl)-1H-imidazo[4,5-c]quinolin-2-yl]methyl]-N-ethylacetamide] | > 100 | > 100 |
| CCCn1cc(-c2ccc3c(c2)nc(N)c2nc(CN(CC)C(C)=O)[nH]c23)cn1 [Compound 169, N-[[4-amino-7-(1-propylpyrazol-4-yl)-1H-imidazo[4,5-c]quinolin-2-yl]methyl]-N-ethylacetamide] | > 100 | > 100 |
| CCN(Cc1nc2c(N)nc3cc(C(C)C)ccc3c2[nH]1)C(C)=O [Compound 170, N-[(4-amino-7-propan-2-yl-1H-imidazo[4,5-c]quinolin-2-yl)methyl]-N-ethylacetamide] | 20 to 100 | > 100 |
| CCc1ccc2c(c1)nc(N)c1nc(CN(CC)C(C)=O)[nH]c12 [Compound 171, N-[(4-amino-7-ethyl-1H-imidazo[4,5-c]quinolin-2-yl)methyl]-N-ethylacetamide] | 1 to 20 | > 100 |
| CCCc1ccc2c(c1)nc(N)c1nc(CN(CC)C(C)=O)[nH]c12 [Compound 172, N-[(4-amino-7-propyl-1H-imidazo[4,5-c]quinolin-2-yl)methyl]-N-ethylacetamide] | 1 to 20 | > 100 |
| CCN(Cc1nc2c(N)nc3cc(C4CCCC4)ccc3c2[nH]1)C(C)=O [Compound 173, N-[(4-amino-7-cyclopentyl-1H-imidazo[4,5-c]quinolin-2-yl)methyl]-N-ethylacetamide] | > 100 | > 100 |
| CCN(Cc1nc2c(N)nc3cc(-c4cccnc4F)ccc3c2[nH]1)C(C)=O [Compound 175, N-[[4-amino-7-(2-fluoropyridin-3-yl)-1H-imidazo[4,5-c]quinolin-2-yl]methyl]-N-ethylacetamide] | > 100 | > 100 |
| CCN(Cc1nc2c(N)nc3ccccc3c2[nH]1)C(C)=O [Compound 176] | > 100 | > 100 |

Results, then the compound that gave them:

| EC50 (TLR7) [µM] | EC50 (TLR8) [µM] | Structure (SMILES) |
| --- | --- | --- |
| > 100 | > 100 | CCN(Cc1nc2c(N)nc3cc(Br)ccc3c2[nH]1)C(C)=O [Compound 177] |
| > 100 | > 100 | CCN(Cc1nc2c(N)nc3cc(Cl)ccc3c2[nH]1)C(C)=O [Compound 179, N-[(4-amino-7-chloro-1H-imidazo[4,5-c]quinolin-2-yl)methyl]-N-ethylacetamide] |
| > 100 | > 100 | CCN(Cc1nc2c(N)nc3cc(-n4cccn4)ccc3c2[nH]1)C(C)=O [Compound 180, N-[(4-amino-7-pyrazol-1-yl-1H-imidazo[4,5-c]quinolin-2-yl)methyl]-N-ethylacetamide] |
| > 100 | > 100 | CCN(Cc1nc2c(N)nc3cc(C4=CCCC4)ccc3c2[nH]1)C(C)=O [Compound 183] |
| 1 to 20 | 20 to 100 | CC(=O)N(C)Cc1nc2c(N)nc3ccccc3c2[nH]1 [Compound 187] |
| > 100 | > 100 | COC(=O)CCCn1c(CN(C)C(C)=O)nc2c(N)nc3ccccc3c21 [Compound 188] |
| > 100 | > 100 | CCN(Cc1nc2c(N)nc3cc(C4CC4)ccc3c2n1Cc1ccc(OC)cc1)C(C)=O [Compound 190] |
| > 100 | > 100 | CCN(Cc1nc2c(N)nc3ccccc3c2n1CCCNC(=O)OC(C)(C)C)C(C)=O [Compound 191] |
| > 100 | > 100 | CCN(Cc1nc2c(N)nc3ccc(Br)cc3c2[nH]1)C(C)=O [Compound 194] |
| > 100 | > 100 | CCN(Cc1nc2c(N)nc3cc(N4CCNC4=O)ccc3c2n1Cc1ccc(OC)cc1)C(C)=O [Compound 196] |
| > 100 | > 100 | CCN(Cc1nc2c(N)nc3ccc(Cl)cc3c2[nH]1)C(C)=O [Compound 197] |
